Experimental findings from US20140093555A1, “PATCH PREPARATION CONTAINING AMINE OXIDE” (Nitto Denko Corporation, priority 2012, published 2014) are described below.

The data set has as its system skin isolated from a hairless mouse. Description: Skin permeability test (patch on isolated hairless mouse skin, permeation cell, PBS(-) receptor, HPLC). Type of data set: in vitro ADME. To be noted: statement in words, Tables 3 and 4.

Procedure: To examine transdermal absorbability of the drug, the obtained patch preparation was subjected to a skin permeability test.
A patch preparation was cut into a circle having a diameter of 6 mmφ, adhered to the stratum corneum side of a skin isolated from a hairless mouse, mounted on a cell for skin permeation experiment (effective area 9 mmφ) such that the dermic layer side was a receptor phase, and a skin permeation experiment was conducted. As a receptor solution, a deaerated PBS(−) solution (phosphate buffered saline) was used.

As to `CCOC(=O)C1=C(COCCN)NC(C)=C(C(=O)OC)C1c1ccccc1Cl` (stereo not shown) [amlodipine besilate], the “skin permeability of the drug” value is listed as “low skin permeability”.
